Measured values: patent publication US10772886B2, “CXCR-2 inhibitors for treating crystal arthropathy disorders” (ARDEA BIOSCIENCES, INC., priority 2016, dated 2020)

Tests used:
[1] = test system: rat air pouch model of crystal-induced arthropathy (MSU); assay: Rat air pouch therapeutic model, Example 10 (Compounds 3 and 4 in combination with colchicine); type: in vivo
Description: Sodium hydroxide (40 g, Fisher Scientific) was dissolved in de-ionized water (100 mL, dH2O) to provide a 10N solution. Uric acid (16 g, Sigma) was added to de-ionized water (3400 mL) containing sodium hydroxide solution (11.8 mL, 10N) and heated to 60° C. with constant stirring. […] The resulting clear solution was cooled to 4-8° C., resulting in the formation of crystals, which were isolated by filtration, washed three times with de-ionized wa[…]) and dried at 37° C. The dried mono sodium urate crystals were sifted into an air-tight container for storage. […] Methylcellulose (0.4 g, Sigma) was dissolved in de-ionized water (100 mL) to provide a 0.4% solution used as vehicle. […] Test compounds were suspended in vehicle to provide the desired concentrations, and diluted accordingly. […] The animals were in apparent good health with no clinical signs of disease or distress. The rats were placed in quarantine with daily inspections, ear notched for identification purposes and shaved at the nape of the neck. The rats were anesthetized (isoflurane), and the nape of the neck was cleansed with 70% isopropanol (Butler Animal Health Supply) followed by povidone-iodine solution (Ricca Chemical Co.). Sterile air (30 mL, 0.2 μm, Millipore) was injected subcutaneously using a 23 G×11⁄2 inch needle fixed to a 30 mL syringe. The rats were returned to routine housing with no adverse reactions observed. The rats were anesthetized (isoflurane), and the nape of the neck was cleansed with 70% isopropanol (Butler Animal Health Supply) followed by povidone-iodine solution (Ricca Chemical Co.). Sterile air (15 mL, 0.11 μm, Millipore) was injected subcutaneously using a 23 G×11⁄2 inch needle fixed to a 20 mL syringe. The rats were returned to routine housing with no adverse reactions observed. The rats were weighed and sorted into treatment groups based on average body weight. As appropriate, the rats were dosed orally with test compound or vehicle (saline alone). […] Control group was injected with 15 mL sterile saline (vehicle). The injection sites were closed (collodion, Macron) and the rats returned to their cages with no adverse effects observed. Four hours after MSU/saline injection, the rats were anesthetized and heparinized saline (5 mL, 10 U/mL) was injected into the air pouch. […] An aliquot of the exudate was transferred to green Eppendorf tubes for total white blood cell (WBC) measurement. After allowing the MSU crystals to settle out for ten minutes, an aliquot of the exudate was transferred to heparinized microtainer tubes (Becton Dickinson) for differential white blood cell counts. The remainder of the exudate was centrifuged and an aliquot of the supernatants was dispensed to labeled clear Eppendorf tubes and stored at -80° C. The rats were exsanguinated into pre-chilled serum separator tubes, processed to serum, and 0.5 mL aliquot was stored at -80° C. in labeled Eppendorf tubes. […] 140 rats were used, divided into 14 groups of 10 animals, as follows: [table]

[2] = test system: rat air pouch model of crystal-induced arthropathy (MSU); assay: Rat air pouch model, Example 8 (Compound 3 in combination with colchicine); type: in vivo
Description: Sodium hydroxide (40 g, Fisher Scientific) was dissolved in de-ionized water (100 mL, dH2O) to provide a 10N solution. Uric acid (16 g, Sigma) was added to de-ionized water (3400 mL) containing sodium hydroxide solution (11.8 mL, 10N) and heated to 60° C. with constant stirring. […] The resulting clear solution was cooled to 4-8° C., resulting in the formation of crystals, which were isolated by filtration, washed three times with de-ionized wa[…]) and dried at 37° C. The dried mono sodium urate crystals were sifted into an air-tight container for storage. […] Methylcellulose (0.4 g, Sigma) was dissolved in de-ionized water (100 mL) to provide a 0.4% solution used as vehicle. […] Test compounds were suspended in vehicle to provide the desired concentrations, and diluted accordingly. […] Male Sprague-Dawley rats (Charles River Laboratories, 160-180 g) were received, individually examined and housed in cages of five rats each. The animals were in apparent good health with no clinical signs of disease or distress. The rats were placed in quarantine with daily inspections, ear notched for identification purposes and shaved at the nape of the neck. The rats were anesthetized (isoflurane), and the nape of the neck was cleansed with 70% isopropanol (Butler Animal Health Supply) followed by povidone-iodine solution (Ricca Chemical Co.). Sterile air (30 mL, 0.2 μm, Millipore) was injected subcutaneously using a 23 G×11⁄2 inch needle fixed to a 30 mL syringe. The rats were returned to routine housing with no adverse reactions observed. The rats were anesthetized (isoflurane), and the nape of the neck was cleansed with 70% isopropanol (Butler Animal Health Supply) followed by povidone-iodine solution (Ricca Chemical Co.). Sterile air (15 mL, 0.11 μm, Millipore) was injected subcutaneously using a 23 G×11⁄2 inch needle fixed to a 20 mL syringe. The rats were returned to routine housing with no adverse reactions observed. The rats were weighed and sorted into treatment groups based on average body weight. As appropriate, the rats were dosed orally with test compound or vehicle (saline alone). […] Thirty minutes after SC injection or two hours after PO dosing, MSU (15 mL) was injected into the air pouch using an 18 G×2 inch needle fitted to a 20 mL syringe. Control group was injected with 15 mL sterile saline (vehicle). The injection sites were closed (collodion, Macron) and the rats returned to their cages with no adverse effects observed. Four hours after MSU/saline injection, the rats were anesthetized and heparinized saline (5 mL, 10 U/mL) was injected into the air pouch. […] An aliquot of the exudate was transferred to green Eppendorf tubes for total white blood cell (WBC) measurement. After allowing the MSU crystals to settle out for ten minutes, an aliquot of the exudate was transferred to heparinized microtainer tubes (Becton Dickinson) for differential white blood cell counts. The remainder of the exudate was centrifuged and an aliquot of the supernatants was dispensed to labeled clear Eppendorf tubes and stored at -80° C. The rats were exsanguinated into pre-chilled serum separator tubes, processed to serum, and 0.5 mL aliquot was stored at -80° C. in labeled Eppendorf tubes. […] [table]

[3] = 10 μmol/kg PO + Colchicine 0.3 mg/kg SC, Groups 9, 14
[4] = 10.0 umol/kg PO + Colchicine 0.3 mpk SC, Group 10

Q: Which “Avg Exudate Vol” value ([1]; 0.3 mpk SC, Group 3) does the source give for COc1cc2c(c(OC)c1OC)-c1ccc(OC)c(=O)cc1[C@@H](NC(C)=O)CC2 [Colchicine, COLCHICINE, reference compound] here?
A: 11.7 mL

Q: And the “Avg Tot WBC” value ([1]; 0.3 mpk SC, Group 3)?
A: 180 ×10^6

Q: And the Neutrophils ([1]; 0.3 mpk SC, Group 3)?
A: 71.5 ×10^6

Q: And the “Avg Exudate Vol” value ([1]; 0.5 mpk SC, Group 4)?
A: 8.9 mL

Q: What about the “Avg Tot WBC” value ([1]; 0.5 mpk SC, Group 4) of the same compound?
A: 35 ×10^6

Q: And the Neutrophils ([1]; 0.5 mpk SC, Group 4)?
A: 70.7 ×10^6

Q: What about the “Avg Exudate Vol” value ([1]; 1.0 mpk SC, Group 5) of the same compound?
A: 7.3 mL

Q: And the “Avg Tot WBC” value ([1]; 1.0 mpk SC, Group 5)?
A: 9.8 ×10^6

Q: And the Neutrophils ([1]; 1.0 mpk SC, Group 5)?
A: 25.9 ×10^6

Q: What about the “Avg Exudate Vol” value ([2]; 0.3 mpk SC, Group 3) of the same compound?
A: 11.88 mL

Q: And the “Avg Total WBC” value ([2]; 0.3 mpk SC, Group 3)?
A: 170 ×10^6

Q: And the Neutrophils ([2]; 0.3 mpk SC, Group 3)?
A: 121.8 ×10^6

Q: What about the “Avg Exudate Vol” value ([2]; 0.5 mpk SC, Group 4) of the same compound?
A: 7.62 mL

Q: What about the “Avg Total WBC” value ([2]; 0.5 mpk SC, Group 4) of the same compound?
A: 96.3 ×10^6

Q: And the Neutrophils ([2]; 0.5 mpk SC, Group 4)?
A: 64.6 ×10^6

Q: What about the “Avg Exudate Vol” value ([2]; 1.0 mpk SC, Group 5) of the same compound?
A: 6.8 mL

Q: And the “Avg Total WBC” value ([2]; 1.0 mpk SC, Group 5)?
A: 41.5 ×10^6

Q: And the Neutrophils ([2]; 1.0 mpk SC, Group 5)?
A: 7.6 ×10^6

Q: For C[C@@H](Oc1cc(NS(=O)(=O)N2CCC2)nc(SCc2cccc(F)c2F)n1)[C@@H](O)CO [Compound 3, N-(2-((2,3-difluorobenzyl)thio)-6-(((2R,3S)-3,4-dihydroxybutan-2-yl)oxy)pyrimidin-4-yl)azetidine-1-sulfonamide], which “Avg Exudate Vol” value ([1]; 3 μmol/kg PO, Group 10) is on record?
A: 11.5 mL

Q: What about the “Avg Tot WBC” value ([1]; 3 μmol/kg PO, Group 10) of the same compound?
A: 120 ×10^6

Q: What about the Neutrophils ([1]; 3 μmol/kg PO, Group 10) of the same compound?
A: 71.1 ×10^6

Q: What about the “Avg Exudate Vol” value [1, 3] of the same compound?
A: 9.5 mL

Q: And the “Avg Tot WBC” value [1, 3]?
A: 68 ×10^6

Q: What about the Neutrophils [1, 3] of the same compound?
A: 72.6 ×10^6

Q: What about the “Avg Exudate Vol” value ([1]; 10 μmol/kg PO, Groups 6, 11) of the same compound?
A: 10.0 mL

Q: And the “Avg Tot WBC” value ([1]; 10 μmol/kg PO, Groups 6, 11)?
A: 84 ×10^6

Q: What about the Neutrophils ([1]; 10 μmol/kg PO, Groups 6, 11) of the same compound?
A: 69.2 ×10^6

Q: What about the “Avg Exudate Vol” value ([1]; 30 μmol/kg PO, Groups 7, 12) of the same compound?
A: 8.8 mL

Q: What about the “Avg Tot WBC” value ([1]; 30 μmol/kg PO, Groups 7, 12) of the same compound?
A: 59 ×10^6

Q: And the Neutrophils ([1]; 30 μmol/kg PO, Groups 7, 12)?
A: 30.7 ×10^6

Q: And the “Avg Exudate Vol” value ([1]; 100 μmol/kg PO, Groups 8, 13)?
A: 6.9 mL

Q: What about the “Avg Tot WBC” value ([1]; 100 μmol/kg PO, Groups 8, 13) of the same compound?
A: 40 ×10^6

Q: What about the Neutrophils ([1]; 100 μmol/kg PO, Groups 8, 13) of the same compound?
A: 35.1 ×10^6

Q: And the “Avg Exudate Vol” value [2, 4]?
A: 9.46 mL

Q: And the “Avg Total WBC” value [2, 4]?
A: 69.1 ×10^6

Q: What about the Neutrophils [2, 4] of the same compound?
A: 53.1 ×10^6

Q: What about the “Avg Exudate Vol” value ([2]; 10.0 umol/kg PO, Group 6) of the same compound?
A: 10.93 mL

Q: And the “Avg Total WBC” value ([2]; 10.0 umol/kg PO, Group 6)?
A: 118 ×10^6

Q: And the Neutrophils ([2]; 10.0 umol/kg PO, Group 6)?
A: 83.3 ×10^6

Q: What about the “Avg Exudate Vol” value ([2]; 30.0 umol/kg PO, Group 7) of the same compound?
A: 8.42 mL

Q: And the “Avg Total WBC” value ([2]; 30.0 umol/kg PO, Group 7)?
A: 70.5 ×10^6

Q: What about the Neutrophils ([2]; 30.0 umol/kg PO, Group 7) of the same compound?
A: 40.3 ×10^6

Q: And the “Avg Exudate Vol” value ([2]; 100 umol/kg PO, Group 8)?
A: 6.56 mL

Q: And the “Avg Total WBC” value ([2]; 100 umol/kg PO, Group 8)?
A: 56.1 ×10^6

Q: And the Neutrophils ([2]; 100 umol/kg PO, Group 8)?
A: 25.2 ×10^6

Q: And the “Avg Exudate Vol” value ([2]; 300 umol/kg PO, Group 9)?
A: 5.7 mL

Q: And the “Avg Total WBC” value ([2]; 300 umol/kg PO, Group 9)?
A: 24.7 ×10^6

Q: What about the Neutrophils ([2]; 300 umol/kg PO, Group 9) of the same compound?
A: 5.3 ×10^6

Q: With CC1CN(S(=O)(=O)Nc2cc(O[C@H](C)[C@@H](O)CO)nc(SCc3ccc(F)cc3)n2)C1 [Compound 4, N-(6-(((2R,3S)-3,4-dihydroxybutan-2-yl)oxy)-2-((4-fluorobenzyl)thio)pyrimidin-4-yl)-3-methylazetidine-1-sulfonamide] as the compound, how does the “Avg Exudate Vol” value [1, 3] read?
A: 7.6 mL

Q: And the “Avg Tot WBC” value [1, 3]?
A: 46 ×10^6

Q: And the Neutrophils [1, 3]?
A: 61.5 ×10^6

Q: And the “Avg Exudate Vol” value ([1]; 10 μmol/kg PO, Groups 6, 11)?
A: 11.5 mL

Q: And the “Avg Tot WBC” value ([1]; 10 μmol/kg PO, Groups 6, 11)?
A: 130 ×10^6

Q: What about the Neutrophils ([1]; 10 μmol/kg PO, Groups 6, 11) of the same compound?
A: 68.4 ×10^6

Q: And the “Avg Exudate Vol” value ([1]; 30 μmol/kg PO, Groups 7, 12)?
A: 8.2 mL

Q: What about the “Avg Tot WBC” value ([1]; 30 μmol/kg PO, Groups 7, 12) of the same compound?
A: 25 ×10^6

Q: What about the Neutrophils ([1]; 30 μmol/kg PO, Groups 7, 12) of the same compound?
A: 60.4 ×10^6

Q: What about the “Avg Exudate Vol” value ([1]; 100 μmol/kg PO, Groups 8, 13) of the same compound?
A: 7.0 mL

Q: What about the “Avg Tot WBC” value ([1]; 100 μmol/kg PO, Groups 8, 13) of the same compound?
A: 18 ×10^6

Q: And the Neutrophils ([1]; 100 μmol/kg PO, Groups 8, 13)?
A: 26.2 ×10^6
